Test results as given in patent US20110251069A1, “ISOXAZOLE DERIVATIVES FOR USE AS PLANT GROWTH REGULATORS” (SYNGENTA CROP PROTECTION LLC, priority 2008, published 2011).

Tested on: wheat plants cultivar (cv.). Riband
Test: Biological evaluation of plant growth regulation effects on wheat
Type: in vivo
Conditions: 200 ppm; 2 weeks old wheat plants cv. Riband sprayed with formulated compound; assessed after 8 days at 22° C. and 80% r. h. in a greenhouse
Method: Biological Evaluation of Plant Growth Regulation Effects on Wheat
2 weeks old wheat plants cultivar (cv.). Riband were treated with the formulated test compound in a spray chamber. After an incubation period of 8 days at 22° C. and 80% relative humidity (r. h.) in a greenhouse, the plant growth regulating effects were assessed.

OC(c1cccnc1)c1c(-c2ccccc2Cl)csc1-c1ccc(F)cc1F (stereo not shown) [Compound 175, 2-(2,4-Difluorophenyl)-4-(2-chlorophenyl)-3-[(3-pyridyl)hydroxymethyl]-thiophene]
plant growth regulating effects: plant height decrease
